Consider two compounds from patent publication US10543183B2, “Treatment and diagnosis of melanoma” (The Rockefeller University, priority 2012, dated 2020).

For assay [1], the system named is VEGF-induced endothelial recruitment. As to the kind of experiment: in vivo matrigel plug assay. The following applies: VEGF 400 ng/mL + 10 μg/mL. Also noted: species or system mouse. The method, then: 10 μg/mL recombinant human ApoE3 (4696, BioVision), 10 μg/mL BSA (A2153, Sigma Aldrich), or 400 ng/ml VEGF were mixed with matrigel (356231, BD Biosciences) as indicated. 400 μL of matrigel containing the indicated recombinant proteins were injected subcutaneously just above the ventral flank of immunocompromised NOD-SCID mice. Plugs were extracted on day 3 post-injection and fixed in 4% paraformaldehyde for 48 hours. Plugs were then paraffin-embedded and sectioned at 5-μm-thick increments. Plug cross-sectional sections were immunohistochemically stained using a primary antibody against the mouse endothelial antigen MECA-32 (Developmental Studies Hybridoma Bank, The University of Iowa, IA), detected by peroxidase-conjugated secondary antibody, and subsequently visualized by DAB oxidization. To quantify the extent of endothelial cell invasion into each matrigel plug, the number of endothelial cells was counted in 4-5 random fields for each plug, and the average number of endothelial cells per given plug area was calculated.

For assay [2], the system named is MeWo-LM2 cells or endothelial cells. As to the kind of experiment: serum starvation assay. The note with it: 100 μM, 0.2% FBS. The assay is classed as cell-based, human. The method, then:
The number of viable cells was counter after 8, 16, and 24 hours.

For the next assay, the system named is MeWo melanoma cells. As to the kind of experiment: orthotopic metastasis assay after tumor excision. In kind it is in vivo, mouse. The note with it: oral, chow 100 mg/kg for 1 month. On the procedure:
To determine the effect of GW3965 treatment on lung colonization by melanoma cells dissociated from an orthotopic site, 1×10^6 MeWo cells expressing a luciferase reporter were subcutaneously injected into both lower flanks of NOD Scid mice. Upon the formation of tumors measuring ˜300 mm^3 in volume, the tumors were excised and the mice were randomly assigned to a control diet or a GW3965-supplemented diet (100 mg/kg) treatment. One month after tumor excision, the lungs were extracted and lung colonization was measured by ex vivo bioluminescence imaging. To histologically confirm the extent of melanoma lung colonization, lungs were then fixed in 4% PFA overnight, paraffin-embedded, section into […] increments and stained for human vimentin (VP-V684, Vector Laboratories).

Assay [3] relates to MeWo brain metastatic derivative cells. Briefly: brain metastasis assay, intracardiac injection. In kind it is in vivo, mouse. The note with it: oral, diet 100 mg/kg. The method, then: Melanoma cells used for in vivo metastasis assays were transduced with a stably expressed retroviral construct encoding a luciferase reporter gene (Ponomarev et al., 2004), allowing us to monitor the in vivo progression of melanoma cells by bioluminescence imaging. The following numbers of melanoma cells, resuspended in 100 μL of PBS, were injected intravenously via the tail-vein: 4×10^4 MeWo cells, 2.5×10^5 HT-144 cells, 2×10^5 SK-Mel-334.2 cells, 5×10^4B 16F10 cells, and 1×10^5YUMM cells. The MeWo, HT-144, and SK-Mel-334.2 cells were injected into 6-8 week-old sex-matched NOD scid mice, while the B16F10 and YUMM cells were injected into 6-8 week-old sex-matched C57BL/6 mice. In all experiments assessing at the effects of GW3965 on metastasis formation, mice were pre-treated on a control diet or a GW3965-supplemented diet (20 mg/kg) for 10 days. To assess the effect of GW3965 treatment on brain metastasis, 1×10^5 MeWo brain-metastatic derivatives were injected intracardially into athymic nude mice. Immediately following injection, mice were randomly assigned to a control diet or GW3965-supplemented diet (100 mg/kg). […]

The test system of assay [4] is MeWo human melanoma tumors. As to the kind of experiment: tumor histochemistry (MECA-32, Ki-67, cleaved caspase-3). In kind it is in vivo, mouse. An excerpt:
Animals were intracardially perfused with PBS followed by 4% paraformaldehyde (PFA). Fixed lungs were embedded in paraffin and sectioned into 5-μm-thick increments. Macroscopic lung metastatic nodules were visualized by H&E staining. For analysis of tumor endothelial cell content, proliferation, and apoptosis, primary tumor paraffin-embedded sections were stained with antibodies against MECA-32 (Developmental Studies Hybridoma Bank, University of Iowa), KI-67 (ab15580, Abcam), and cleaved caspase-3 (9661, Cell Signaling), respectively.
Tumors were excised from mice and fixed in 4% paraformaldehyde at 4° C. for 48 hours. Then, tumors were paraffin-embedded and sectioned into 5-μm-thick increments. For endothelial cell content analysis in tumors, tumor sections were stained with a primary antibody against the mouse endothelial cell marker MECA-32 (Developmental Studies Hybridoma Bank, The University of Iowa, IA) and counterstained with DAPI nuclear stain. To determine tumor cell proliferation and apoptosis, tumor sections were stained with antibodies against the proliferative marker Ki-67 (Abcam, ab15580, Cambridge, Mass.) and the apoptotic marker cleaved caspase-3 (9661, Cell Signaling, Danvers, Mass.), respectively. Various Alexa Flour dye-conjugated secondary antibodies were used to detect primary antibodies. […] Endothelial cell content density and tumor proliferation rate were quantified by calculating the average percentage of MECA-32 or Ki-67 positively-staining area out of the total tumor area. Tumor apoptosis was measured by counting the number of cleaved caspase-3 expressing cells per given tumor area.

Assay [5] relates to MDA-468 human breast cancer cells. As to the kind of experiment: MDA-468 breast cancer tumor growth in mammary fat pads. The assay is classed as in vivo, mouse. The note with it: diet 75 mg/kg/day. The method, then: The mice were assigned to a control diet treatment or a GW3965-supplemented diet treatment (75 mg/kg/day) two days prior to injection of the cancer cells.
For assay [6], the system named is B16F10 mouse melanoma cells. As to the kind of experiment: subcutaneous B16F10 tumor growth in mice. In kind it is in vivo. The following applies: chow 100 mg/kg. On the procedure:
First, the cells were treated with 500 μg/mL DTIC for one week. Following this initial DTIC treatment, the remaining (˜10%) viable cells were allowed to recover for one week, after which 750 μg/mL of DTIC was added to the cell media for 5 days. Subsequent to this high-dose treatment, the cells were allowed to recover in the presence of low-dose DTIC (100 μg/mL) for one week. The cells were then continuously cultured in cell media containing 200 μg/mL DTIC for at least one month prior to grafting the cells into mice. DTIC was added to fresh cancer cell media every 3 days. […] DTIC was dissolved in the presence of citric acid (1:1 by weight) in water and administered daily by intraperitoneal injection.

Where a name gives a salt, the structure may show the parent alone.

Turning to “recombinant ApoE3: recombinant human ApoE3 (4696, BioVision)”, the “suppression of VEGF-induced endothelial recruitment into subcutaneous matrigel plugs” value in assay [1] is “greater than 40 fold”. The “survival in serum starvation conditions” value in assay [2] was “did not affect”.

Consider `O=C(O)Cc1cccc(OCCCN(Cc2cccc(C(F)(F)F)c2Cl)CC(c2ccccc2)c2ccccc2)c1` [GW3965 2, 3-[3-[N-(2-Chloro-3-trifluoromethylbenzyl)-(2,2-diphenylethyl)amino]propyloxy] phenylacetic acid hydrochloride], for which, in the assay with MeWo melanoma cells, the “inhibition of lung colonization by disseminated melanoma cells post-tumor excision” value was 17 fold. Besides, in assay [3], the brain colonization result is “inhibited” and the systemic dissemination entry is “inhibited”. Besides, the “decrease in number of actively proliferating tumor cells in vivo” value in assay [4] (Ki-67) is 23%. Further, the “number of apoptotic cells” value in assay [4] (cleaved caspase-3) is recorded as “without a change”. For the same compound, the “reduction in endothelial cell content of tumors” value in assay [4] (diet 20 mg/kg, 35 days, MECA-32) was “roughly 2 fold”. Moreover, the “breast cancer tumor size in vivo” value in assay [5] is recorded as “significant reduction”. Further, the “suppression of tumor growth by DTIC-resistant B16F10 clone” value in assay [6] was “more than 70%”.
